Consider four molecules from patent US20250289809A1, “COMPOUNDS USEFUL FOR GOUT” (ATOM BIOSCIENCE AMERICA CORPORATION, priority 2022, published 2025).

The test system of data set [1] is potassium oxonate -induced hyperuricemic rats. The data set can be described thus: Serum uric acid level in potassium oxonate-induced hyperuricemic rats after 3-day administration. The format is in vivo, Sprague Dawley (SD) rats. The settings on record: for Uric acid: serum, mean ± SD, n=6; for Effect on serum uric acid level after modeling, compared with the model group at the same time point: 2 mg/kg gavage, hyperuricemic rats, result in words. An excerpt:
Compound 30 and 32 were light yellow powders and triturated with 0.5% CMC-Na just prior to use to prepare suspensions having a corresponding concentration for gavage.
Febuxostat, purchased from Sigma, was triturated with 0.5% CMC-Na just prior to use to prepare a suspension having a corresponding concentration for gavage.
Sprague Dawley (SD) rats, SPF grade, 30, male, weighing 230-250 g, purchased from Shanghai SLAC Laboratory Animal Co., Ltd., permission number: SCXK (hu) 2022-0004, quality certification number: 20220004017238.
Uric acid assay kit (phosphotungstic acid reduction method), batch number: 20230224, purchased from NanJing Jiancheng Bioengineering Institute; Potassium oxonate, article number: 00164, batch number: T6GKM-TA, purchased from Tokyo Chemical Industry Co., Ltd., Japan (TCI); carboxymethyl cellulose sodium (CMC-Na), batch number: 20170810, chemically pure, purchased from Sinopharm chemical reagent Co., Ltd.
30 male SD rats weighed approximately 220-240 g after one week of adaptation. They were randomly divided into 5 groups according to the body weight, with 6 rats in each group, namely: (1) normal group (0.5% CMC-Na), (2) model group (0.5% CMC-Na), (3) Febuxostat, 2 mg/kg, (4) compound 30, 2 mg/kg and (5) compound 32, 2 mg/kg. The drugs in each group were prepared into a corresponding concentration suspension, and the administration volume was 0.5 mL/100 g.
After the rats in each group were purchased and adapted to feeding, they were fasted for 12 h, and intraperitoneally injected with potassium oxonate at a dose of 300 mg/kg to establish a model. 0.5 h after modeling, each test drug group was subjected to gavage administration once. The drug was administered continuously for 3 days. On day 3, blood samples were collected from the retro-orbital venous plexus before and 1, 3 and 5 h after injection of potassium oxonate. The samples were centrifuged at 3500 rpm for 10 min, and 30 μL of serum was collected to measure the uric acid level at each time point.
The measurement data of each test were expressed as (mean)±(standard deviation). The comparison between groups used ANOVA-Dunnett T test to examine the significance. P<0.05 was used as the significance index, and P<0.01 was used as the extremely significant index.

A short description of data set [2]: In vivo pharmacokinetic experiments in SD rats (oral and intravenous). The settings on record: male, Sprague-Dawley (SD), rat, plasma. The procedure: Preparation of compound stock solution: An appropriate amount of compound solid powder was be weighed and added in a certain amount of DMSO, and vortex ultrasound to obtain a 10 mg/mL stock solution.
Preparation of test compound for gavage: respectively taking an appropriate amount of the compound stock solution, adding a certain amount of Solutol HS15 solution, vortexing for 1 minute, then adding a certain amount of physiological saline, and fully mixing to obtain a 1 mg/mL solution.
Preparation of test compound for intravenous injection: respectively taking an appropriate amount of the compound stock solution, adding a certain amount of Solutol HS15 solution, vortexing for 1 minute, then adding a certain amount of physiological saline, and fully mixing until uniform, so as to obtain a 0.5 mg/mL solution.
SD rats, male, SPF grade, 6-8 weeks old, purchased from JH Laboratory Animal Co. LTD. Permission number: SCXK (SH) 2022-0009, certification number: 20220009004139.
The experimental animals were fasted overnight before gavage administration, and were given food 4 hours after administration, with free access to water. Each test compound was divided into two groups, namely, intravenous administration group and oral administration group.
Blood samples (150 μL/sample) were collected from the jugular vein of SD rats before administration and at 5 min (only intravenous administration group), 15 min, 30 min, 1 h, 2 h, 4 h, 8 h and 24 h after administration, respectively. The samples were placed in centrifuge tubes containing anticoagulant sodium heparin and centrifuged at 4° C., 2000 g for 5 minutes to separate plasma. The plasma samples were analyzed by LC/MS/MS to detect the concentration of each test compound.
Non-compartmental model-related parameters were calculated by WinNonlin® Professional software.

Where [3] appears, read: 0 h (before potassium oxonate injection on day 3), 2 mg/kg gavage once daily for 3 days.
[4] abbreviates: 1 h after potassium oxonate 300 mg/kg i.p. on day 3, 2 mg/kg gavage for 3 days.
Where [5] appears, read: 3 h after potassium oxonate 300 mg/kg i.p. on day 3, 2 mg/kg gavage for 3 days.
Where [6] appears, read: 5 h after potassium oxonate 300 mg/kg i.p. on day 3, 2 mg/kg gavage for 3 days.
Setting [7] is: Intravenous injection administration - 1 mg/kg.
Setting [8] is: po, Gavage administration - 10 mg/kg.

For `CC(C)n1cc(C#N)c2cc(-n3cc(C(=O)OCCCCO[N+](=O)[O-])cn3)ccc21` [compound 30, [4-(nitrooxy)]butyl 1-(3-cyano-1-isopropyl-1H-indol-5-yl)-1H-pyrazole-4-carboxylate], the Uric acid in data set [1] (setting [3]) came out at 45.0 ± 8.4 µmol/L; in data set [1] (setting [4]), 70.0 ± 14.8 µmol/L; in data set [1] (setting [5]), 94.2 ± 22.7 µmol/L; in data set [1] (setting [6]), 72.2 ± 11.4 µmol/L. For the same molecule, the “Effect on serum uric acid level after modeling, compared with the model group at the same time point” value in data set [1] is “significantly reduce”.

On to `Cc1nc(-c2ccc(OCC(C)C)c(C#N)c2)sc1C(=O)O` [Febuxostat, reference compound], for which the Uric acid is 39.2 ± 6.2 µmol/L in data set [1] (setting [3]), 34.4 ± 7.1 µmol/L in data set [1] (setting [4]), 31.2 ± 7.6 µmol/L in data set [1] (setting [5]) and 24.7 ± 4.7 µmol/L in data set [1] (setting [6]). The “Effect on serum uric acid level after modeling, compared with the model group at the same time point” value in data set [1] was “significantly reduce”.

Take `CC(C)n1cc(C#N)c2cc(-n3cc(C(=O)Oc4cccc(CO[N+](=O)[O-])c4)cn3)ccc21` [compound 32, phenyl [3-(nitrooxy)methyl] 1-(3-cyano-1-isopropyl-1H-indol-5-yl)-1H-pyrazole-4-carboxylate]: the Uric acid was 49.1 ± 6.7 µmol/L in data set [1] (setting [3]), 68.9 ± 15.8 µmol/L in data set [1] (setting [4]), 82.2 ± 23.3 µmol/L in data set [1] (setting [5]) and 65.8 ± 13.6 µmol/L in data set [1] (setting [6]). Further, in data set [1], the “Effect on serum uric acid level after modeling, compared with the model group at the same time point” value is on record as “significantly reduce”.

As a reminder, the AUC(0-inf) is the area under the concentration-time curve extrapolated to infinity. The low end stands for less exposure, the high end for more exposure. By Cmax is commonly meant the peak of the concentration-time curve. In general, MRT inf refers to a mean duration of stay, worked out from the concentration-time curve. A word on the Tmax: it is the time from dosing to the highest level. The term half-life denotes how long it takes for the measured level to halve. Turning to `CCOC(=O)OC(C)OC(=O)c1cnn(-c2ccc3c(c2)c(C#N)cn3C(C)C)c1` (stereo not shown) [compound 11, {1-[(ethoxycarbonyl)oxy]}ethyl 1-(3-cyano-1-isopropyl-1H-indol-5-yl)-1H-pyrazole-4-carboxylate], in data set [2] (setting [7]), the AUC(0-inf) was determined as 1100 ng·h/mL, the peak level (Cmax) was 1860 ng/mL, the mean residence time MRT inf turned out to be 3.69 h and the Tmax was determined as 0.083 h. The molecule further showed a half-life in data set [2] (setting [7]) of 7.72 h. For the same molecule, in data set [2] (setting [8]), the AUC(0-inf) stood at 12400 ng·h/mL, the Cmax turned out to be 4670 ng/mL, the MRT inf was found to be 4.22 h and the Tmax was 0.25 h. In data set [2] (setting [8]), this molecule had a half-life of 3.44 h.
